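Following 48 hours of exposure in 96-well plates, responses at five concentrations were used to interpolate endpoints linearly. TGI denotes the concentration required for complete inhibition of growth.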
Tests used:
Test in all cases: NCI-60 cell line screen, 48 h
HOP-92 NSCLC = test system: HOP-92 NSCLC
CCRF-CEM leukemia = test system: CCRF-CEM leukemia
HCT-15 colon = test system: HCT-15 colon
SNB-75 CNS = test system: SNB-75 CNS
HCT-116 colon = test system: HCT-116 colon
LXFL 529 NSCLC = test system: LXFL 529 NSCLC
NCI-H522 lung = test system: NCI-H522 lung
OVCAR-3 ovarian = test system: OVCAR-3 ovarian
RXF 393 renal = test system: RXF 393 renal
SW-620 colon = test system: SW-620 colon
EKVX NSCLC = test system: EKVX NSCLC
HOP-62 NSCLC = test system: HOP-62 NSCLC
IGROV1 ovarian = test system: IGROV1 ovarian
OVCAR-4 ovarian = test system: OVCAR-4 ovarian
RPMI-8226 leukemia = test system: RPMI-8226 leukemia
SN12C renal = test system: SN12C renal
KM20L2 colon = test system: KM20L2 colon
SK-MEL-5 melanoma = test system: SK-MEL-5 melanoma
UACC-62 melanoma = test system: UACC-62 melanoma
K-562 leukemia = test system: K-562 leukemia
NCI-H460 lung = test system: NCI-H460 lung
MOLT-4 leukemia = test system: MOLT-4 leukemia
ACHN renal = test system: ACHN renal
NCI-H23 lung = test system: NCI-H23 lung
SNB-19 CNS = test system: SNB-19 CNS
SR leukemia = test system: SR leukemia
SK-MEL-28 melanoma = test system: SK-MEL-28 melanoma
OVCAR-8 ovarian = test system: OVCAR-8 ovarian
SF-539 CNS = test system: SF-539 CNS
DMS 114 small cell lung = test system: DMS 114 small cell lung
SF-268 CNS = test system: SF-268 CNS
HOP-18 NSCLC = test system: HOP-18 NSCLC
OVCAR-5 ovarian = test system: OVCAR-5 ovarian
MALME-3M melanoma = test system: MALME-3M melanoma
SK-OV-3 ovarian = test system: SK-OV-3 ovarian
M14 melanoma = test system: M14 melanoma
HT29 colon = test system: HT29 colon
DMS 273 small cell lung = test system: DMS 273 small cell lung
DLD-1 colon = test system: DLD-1 colon
COLO 205 colon = test system: COLO 205 colon
SNB-78 CNS = test system: SNB-78 CNS
SK-MEL-2 melanoma = test system: SK-MEL-2 melanoma
A549 NSCLC = test system: A549 NSCLC
786-0 renal = test system: 786-0 renal
M19-MEL melanoma = test system: M19-MEL melanoma
UO-31 renal = test system: UO-31 renal
KM12 colon = test system: KM12 colon
UACC-257 melanoma = test system: UACC-257 melanoma
HCC-2998 colon = test system: HCC-2998 colon
HL-60(TB) leukemia = test system: HL-60(TB) leukemia
U251 CNS = test system: U251 CNS
SF-295 CNS = test system: SF-295 CNS
NCI-H226 lung = test system: NCI-H226 lung
LOX IMVI melanoma = test system: LOX IMVI melanoma
CAKI-1 renal = test system: CAKI-1 renal
A498 renal = test system: A498 renal
TK-10 renal = test system: TK-10 renal

Cc1noc(C)c1C1=CCCCc2ccccc21 gave a TGI (HOP-92 NSCLC) of 85.1 µM, a TGI (CCRF-CEM leukemia) of over 100 µM and a TGI (HCT-15 colon) of over 100 µM. It also gave a TGI (SNB-75 CNS) of 88.2 µM, a TGI (HCT-116 colon) of over 100 µM and a TGI (LXFL 529 NSCLC) of over 100 µM. It also gave a TGI (NCI-H522 lung) of over 100 µM, a TGI (OVCAR-3 ovarian) of over 100 µM and a TGI (RXF 393 renal) of over 100 µM. The TGI (SW-620 colon) was over 100 µM, the TGI (EKVX NSCLC) was over 100 µM and the TGI (HOP-62 NSCLC) was over 100 µM. For the same molecule, the TGI (IGROV1 ovarian) was over 100 µM, the TGI (OVCAR-4 ovarian) was over 100 µM and the TGI (RPMI-8226 leukemia) was over 100 µM. For the same molecule, the TGI (SN12C renal) was over 100 µM, the TGI (KM20L2 colon) was over 100 µM and the TGI (SK-MEL-5 melanoma) was over 100 µM. For the same molecule, the TGI (UACC-62 melanoma) was over 100 µM, the TGI (K-562 leukemia) was over 100 µM and the TGI (NCI-H460 lung) was over 100 µM. The TGI (MOLT-4 leukemia) was over 100 µM, the TGI (ACHN renal) was over 100 µM and the TGI (NCI-H23 lung) was over 100 µM. For the same molecule, the TGI (SNB-19 CNS) was over 100 µM, the TGI (SR leukemia) was 74.9 µM and the TGI (SK-MEL-28 melanoma) was over 100 µM. For the same molecule, the TGI (OVCAR-8 ovarian) was over 100 µM, the TGI (SF-539 CNS) was over 100 µM and the TGI (DMS 114 small cell lung) was over 100 µM. It also gave a TGI (SF-268 CNS) of over 100 µM, a TGI (HOP-18 NSCLC) of over 100 µM and a TGI (OVCAR-5 ovarian) of over 100 µM. For the same molecule, the TGI (MALME-3M melanoma) was over 100 µM, the TGI (SK-OV-3 ovarian) was over 100 µM and the TGI (M14 melanoma) was over 100 µM. The TGI (HT29 colon) was over 100 µM, the TGI (DMS 273 small cell lung) was over 100 µM and the TGI (DLD-1 colon) was over 100 µM. For the same molecule, the TGI (COLO 205 colon) was over 100 µM, the TGI (SNB-78 CNS) was over 100 µM and the TGI (SK-MEL-2 melanoma) was over 100 µM. The TGI (A549 NSCLC) was over 100 µM, the TGI (786-0 renal) was over 100 µM and the TGI (M19-MEL melanoma) was over 100 µM. It also gave a TGI (UO-31 renal) of over 100 µM, a TGI (KM12 colon) of over 100 µM and a TGI (UACC-257 melanoma) of over 100 µM. The TGI (HCC-2998 colon) was over 100 µM, the TGI (HL-60(TB) leukemia) was 62.7 µM and the TGI (U251 CNS) was over 100 µM. For the same molecule, the TGI (SF-295 CNS) was over 100 µM.
Molecule NC(N)=C1CN(C2CCCCC2)C(=O)NC1=O has a TGI (HOP-92 NSCLC) of over 100 µM, a TGI (CCRF-CEM leukemia) of over 100 µM and a TGI (HCT-15 colon) of over 100 µM. The TGI (SNB-75 CNS) was over 100 µM, the TGI (NCI-H226 lung) was over 100 µM and the TGI (HCT-116 colon) was over 100 µM. It also gave a TGI (LXFL 529 NSCLC) of over 100 µM, a TGI (LOX IMVI melanoma) of over 100 µM and a TGI (NCI-H522 lung) of over 100 µM. For the same molecule, the TGI (OVCAR-3 ovarian) was over 100 µM, the TGI (RXF 393 renal) was over 100 µM and the TGI (SW-620 colon) was over 100 µM. The TGI (CAKI-1 renal) was over 100 µM, the TGI (HOP-62 NSCLC) was over 100 µM and the TGI (IGROV1 ovarian) was over 100 µM. For the same molecule, the TGI (OVCAR-4 ovarian) was over 100 µM, the TGI (RPMI-8226 leukemia) was over 100 µM and the TGI (SN12C renal) was over 100 µM. The TGI (KM20L2 colon) was over 100 µM, the TGI (SK-MEL-5 melanoma) was over 100 µM and the TGI (UACC-62 melanoma) was over 100 µM. It also gave a TGI (K-562 leukemia) of over 100 µM, a TGI (NCI-H460 lung) of over 100 µM and a TGI (MOLT-4 leukemia) of over 100 µM. It also gave a TGI (ACHN renal) of over 100 µM, a TGI (NCI-H23 lung) of over 100 µM and a TGI (SNB-19 CNS) of over 100 µM. For the same molecule, the TGI (SR leukemia) was over 100 µM, the TGI (SK-MEL-28 melanoma) was over 100 µM and the TGI (OVCAR-8 ovarian) was over 100 µM. For the same molecule, the TGI (SF-539 CNS) was over 100 µM, the TGI (DMS 114 small cell lung) was over 100 µM and the TGI (SF-268 CNS) was over 100 µM. For the same molecule, the TGI (A498 renal) was over 100 µM, the TGI (HOP-18 NSCLC) was over 100 µM and the TGI (OVCAR-5 ovarian) was over 100 µM. The TGI (MALME-3M melanoma) was over 100 µM, the TGI (SK-OV-3 ovarian) was over 100 µM and the TGI (M14 melanoma) was over 100 µM. The TGI (HT29 colon) was over 100 µM, the TGI (DMS 273 small cell lung) was over 100 µM and the TGI (DLD-1 colon) was over 100 µM. For the same molecule, the TGI (COLO 205 colon) was over 100 µM, the TGI (SNB-78 CNS) was over 100 µM and the TGI (SK-MEL-2 melanoma) was over 100 µM. The TGI (A549 NSCLC) was over 100 µM, the TGI (786-0 renal) was over 100 µM and the TGI (M19-MEL melanoma) was over 100 µM. The TGI (TK-10 renal) was over 100 µM, the TGI (UO-31 renal) was over 100 µM and the TGI (KM12 colon) was over 100 µM. It also gave a TGI (UACC-257 melanoma) of over 100 µM, a TGI (HCC-2998 colon) of over 100 µM and a TGI (HL-60(TB) leukemia) of over 100 µM. For the same molecule, the TGI (U251 CNS) was over 100 µM and the TGI (SF-295 CNS) was over 100 µM.
